Literature values, collected in patent US11304902B2, “Pharmaceutical compositions, preparation and uses thereof” (CURADIGM SAS, priority 2014, dated 2022).

Tests used:
Conditions in all cases: human CYP enzyme
CYP1A1 = target: T1, CYP1A1 (Homo sapiens, UniProt P04798)
T1 sequence (P04798 1-512): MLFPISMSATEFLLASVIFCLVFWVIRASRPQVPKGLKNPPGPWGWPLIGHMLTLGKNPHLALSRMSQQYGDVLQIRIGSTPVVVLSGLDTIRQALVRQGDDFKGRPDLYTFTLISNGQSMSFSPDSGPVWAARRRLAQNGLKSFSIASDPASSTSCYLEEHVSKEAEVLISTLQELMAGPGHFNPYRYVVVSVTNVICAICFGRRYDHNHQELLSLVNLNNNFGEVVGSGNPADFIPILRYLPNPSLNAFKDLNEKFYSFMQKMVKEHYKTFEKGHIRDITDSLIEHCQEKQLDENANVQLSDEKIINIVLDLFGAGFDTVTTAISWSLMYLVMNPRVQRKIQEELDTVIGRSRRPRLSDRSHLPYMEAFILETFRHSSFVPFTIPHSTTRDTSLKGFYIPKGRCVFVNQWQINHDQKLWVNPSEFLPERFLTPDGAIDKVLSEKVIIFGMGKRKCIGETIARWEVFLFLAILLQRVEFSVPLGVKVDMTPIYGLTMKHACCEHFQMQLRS

CYP2A6 = target: T2, CYP2A6 (Homo sapiens, UniProt P11509)
T2 sequence (P11509 1-494): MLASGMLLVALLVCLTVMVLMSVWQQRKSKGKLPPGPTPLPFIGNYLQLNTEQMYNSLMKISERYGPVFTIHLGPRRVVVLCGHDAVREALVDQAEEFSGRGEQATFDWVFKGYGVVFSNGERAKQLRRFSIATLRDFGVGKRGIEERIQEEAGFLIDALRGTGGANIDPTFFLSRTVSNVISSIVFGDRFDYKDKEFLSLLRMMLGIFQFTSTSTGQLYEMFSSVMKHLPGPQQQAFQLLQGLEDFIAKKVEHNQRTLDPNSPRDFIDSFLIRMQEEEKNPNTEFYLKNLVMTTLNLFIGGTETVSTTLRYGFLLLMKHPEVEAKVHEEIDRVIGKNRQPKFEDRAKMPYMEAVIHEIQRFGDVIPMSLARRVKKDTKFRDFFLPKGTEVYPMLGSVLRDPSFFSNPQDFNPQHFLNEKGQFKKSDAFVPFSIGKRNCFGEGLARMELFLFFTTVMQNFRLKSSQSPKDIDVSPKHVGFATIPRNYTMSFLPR

CYP2C8 = target: T3, CYP2C8 (Homo sapiens, UniProt P10632)
T3 sequence (P10632 1-490): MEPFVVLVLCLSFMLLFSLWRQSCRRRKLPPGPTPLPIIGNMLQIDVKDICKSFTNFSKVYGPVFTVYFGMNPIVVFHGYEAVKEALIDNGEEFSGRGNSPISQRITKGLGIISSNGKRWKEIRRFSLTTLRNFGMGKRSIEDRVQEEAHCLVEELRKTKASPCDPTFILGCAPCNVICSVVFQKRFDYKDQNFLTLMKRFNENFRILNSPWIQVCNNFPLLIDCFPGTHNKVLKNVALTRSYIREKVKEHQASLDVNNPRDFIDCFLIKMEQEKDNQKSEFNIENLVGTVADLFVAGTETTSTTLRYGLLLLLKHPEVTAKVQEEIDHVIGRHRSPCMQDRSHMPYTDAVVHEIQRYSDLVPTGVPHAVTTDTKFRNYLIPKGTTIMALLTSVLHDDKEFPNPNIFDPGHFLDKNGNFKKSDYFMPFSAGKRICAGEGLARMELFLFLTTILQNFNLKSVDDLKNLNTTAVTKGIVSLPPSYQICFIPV

CYP2D6 = CYP2D6 (Homo sapiens, UniProt P10635)
Sequence of CYP2D6 (P10635 whole entry): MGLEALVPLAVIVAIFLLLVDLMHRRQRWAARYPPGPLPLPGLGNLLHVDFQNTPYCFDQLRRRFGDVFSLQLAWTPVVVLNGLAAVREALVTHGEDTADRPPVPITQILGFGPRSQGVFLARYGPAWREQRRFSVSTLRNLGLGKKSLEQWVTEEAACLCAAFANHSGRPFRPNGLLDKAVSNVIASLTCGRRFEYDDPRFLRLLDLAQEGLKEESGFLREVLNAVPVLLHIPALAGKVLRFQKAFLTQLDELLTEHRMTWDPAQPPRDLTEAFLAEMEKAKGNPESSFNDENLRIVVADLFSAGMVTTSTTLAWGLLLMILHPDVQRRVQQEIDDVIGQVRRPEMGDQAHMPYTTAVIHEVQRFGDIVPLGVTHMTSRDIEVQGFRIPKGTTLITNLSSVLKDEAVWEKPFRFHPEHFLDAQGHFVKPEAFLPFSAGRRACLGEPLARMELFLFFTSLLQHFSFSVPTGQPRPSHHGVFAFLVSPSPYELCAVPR

CYP4B1 = CYP4B1 (Homo sapiens, UniProt P13584)
Sequence of CYP4B1 (P13584 whole entry): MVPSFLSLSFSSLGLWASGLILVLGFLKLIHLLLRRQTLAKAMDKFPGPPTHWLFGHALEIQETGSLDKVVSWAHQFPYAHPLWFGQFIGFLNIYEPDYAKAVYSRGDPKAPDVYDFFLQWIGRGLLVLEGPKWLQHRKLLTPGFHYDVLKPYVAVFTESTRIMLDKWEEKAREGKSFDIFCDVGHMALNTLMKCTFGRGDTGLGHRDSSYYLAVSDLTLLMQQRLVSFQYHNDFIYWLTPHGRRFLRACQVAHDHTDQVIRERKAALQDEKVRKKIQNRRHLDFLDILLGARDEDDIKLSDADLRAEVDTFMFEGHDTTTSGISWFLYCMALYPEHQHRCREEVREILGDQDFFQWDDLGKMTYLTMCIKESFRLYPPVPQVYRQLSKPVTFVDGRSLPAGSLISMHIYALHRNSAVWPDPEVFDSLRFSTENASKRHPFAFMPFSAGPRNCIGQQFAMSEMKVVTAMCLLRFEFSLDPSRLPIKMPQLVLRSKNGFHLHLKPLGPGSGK

CYP4F2 = target: T4, CYP4F2 (Homo sapiens, UniProt P78329)
T4 sequence (P78329 5-520): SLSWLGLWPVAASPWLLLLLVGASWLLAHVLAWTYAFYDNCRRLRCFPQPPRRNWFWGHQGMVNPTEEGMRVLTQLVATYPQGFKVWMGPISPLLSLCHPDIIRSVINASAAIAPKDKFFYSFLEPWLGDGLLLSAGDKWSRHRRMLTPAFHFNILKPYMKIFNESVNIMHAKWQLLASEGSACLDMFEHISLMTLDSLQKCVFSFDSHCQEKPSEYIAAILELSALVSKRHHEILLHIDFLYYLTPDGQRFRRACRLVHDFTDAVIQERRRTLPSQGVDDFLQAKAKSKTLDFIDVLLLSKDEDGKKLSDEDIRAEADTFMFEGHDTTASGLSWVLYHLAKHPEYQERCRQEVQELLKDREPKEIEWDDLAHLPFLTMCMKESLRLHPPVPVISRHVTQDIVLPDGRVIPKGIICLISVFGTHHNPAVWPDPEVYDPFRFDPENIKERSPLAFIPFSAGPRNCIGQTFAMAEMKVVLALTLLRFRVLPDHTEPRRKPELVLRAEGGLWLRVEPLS

CYP4F8 = target: T5, CYP4F8 (Homo sapiens, UniProt P98187)
T5 sequence (P98187 1-520): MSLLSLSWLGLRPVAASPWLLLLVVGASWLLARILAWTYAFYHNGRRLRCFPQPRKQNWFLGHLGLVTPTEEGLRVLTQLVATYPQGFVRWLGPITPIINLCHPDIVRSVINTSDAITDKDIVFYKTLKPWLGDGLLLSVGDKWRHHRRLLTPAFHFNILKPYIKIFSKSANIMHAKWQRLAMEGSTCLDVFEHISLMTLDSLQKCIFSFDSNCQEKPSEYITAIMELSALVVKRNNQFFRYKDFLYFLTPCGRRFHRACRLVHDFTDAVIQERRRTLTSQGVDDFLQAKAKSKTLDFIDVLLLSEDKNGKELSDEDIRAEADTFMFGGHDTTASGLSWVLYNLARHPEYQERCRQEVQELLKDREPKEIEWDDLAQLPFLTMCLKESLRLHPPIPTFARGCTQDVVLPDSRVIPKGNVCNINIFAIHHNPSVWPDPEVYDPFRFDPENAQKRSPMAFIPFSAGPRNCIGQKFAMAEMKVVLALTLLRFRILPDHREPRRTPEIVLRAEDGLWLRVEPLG

CCCCC/C=C\C/C=C\C/C=C\C/C=C\CCCC(=O)O [Arachidonic acid, arachidonic acid]
role towards CYP1A1 (substrate / inhibitor / inducer) (CYP1A1): Inhibitor | role towards CYP2A6 (substrate / inhibitor / inducer) (CYP2A6): Substrate | role towards CYP2C8 (substrate / inhibitor / inducer) (CYP2C8): Substrate | role towards CYP2D6 (substrate / inhibitor / inducer) (CYP2D6): Inhibitor | role towards CYP4B1 (substrate / inhibitor / inducer) (CYP4B1): Substrate | role towards CYP4F2 (substrate / inhibitor / inducer) (CYP4F2): Substrate | role towards CYP4F8 (substrate / inhibitor / inducer) (CYP4F8): Substrate
